# Assay: recombinant UMI read abundance after kanamycin selection (control-corrected) (log10(CPM+1)); higher = more efficient recombination; extreme values may be limits of the assay; sequences stand for … in AGTGCAGAGAAAATCGGCCAGTTTTCTCTGCCTGCAGTCCGCATGCCGTGGGACCCCTTGGGTTCTAACCTGTTGCCTAGATTTATGCAGCGGACTGCCTTTCTCCCAAAGTGATAAACCGG…AGGTTGGTTTCACT; site = the 11-nt donor
# Method: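 Pooled E. coli donor-specificity screen for the IS621 bridge recombinase. Each library member carries a reprogrammed 11-nt donor and a full-length LE bridge RNA expressed in cis from the natural promoter, with a paired donor-binding loop (8-nt LDG + 4-nt RDG) and a target-binding loop fixed to T5. It is co-electroporated with a T5 target plasmid; recombinase is induced with 0.07 mM IPTG and recombinants are selected on kanamycin. UMIs are counted as CPM, averaged over two biological replicates and corrected by the unselected control. Molecule = full bridge RNA written as DNA, built from the T5 scaffold: LDG = donor specificity nt 1-8, RDG = reverse complement of nt 8-11.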
# 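Further: IS621 bridge recombinase in Escherichia coli cells against a fixed T5 target plasmid.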
row,Sequence,recombinant UMI read abundance (log10)
1,CGACGACCATGGACCGGTTTTCCCGGTAATCCGTATTTGAC (site CGACGACCTGT),0
2,ACACCTCCATGGACCGGTTTTCCCGGTAATCCGTATTTGAC (site ACACTTCCTGT),0
3,GACAAAACATGGACCGGTTTTCCCGGTAATCCGTATTTGGT (site GACAAATCTAC),0
4,ACATCTACATGGACCGGTTTTCCCGGTAATCCGTATTTGTG (site ATATCTACTCA),0.245
5,CGGAATCCATGGACCGGTTTTCCCGGTAATCCGTATTTGTT (site CGGAATCCTGT),0
6,CGATCATCATGGACCGGTTTTCCCGGTAATCCGTATTTGCT (site CGCTCATCTCG),0
7,GGATAGACATGGACCGGTTTTCCCGGTAATCCGTATTTGCA (site GGATAGACTGG),0.112
8,ACACAGCCATGGACCGGTTTTCCCGGTAATCCGTATTTGTG (site ACACAGCCTCA),0.606
9,CAAGCGCCATGGACCGGTTTTCCCGGTAATCCGTATTTGTG (site CAAGCGCCTCC),0.0342
10,TACCTTACATGGACCGGTTTTCCCGGTAATCCGTATTTGCG (site TACCTTACTCG),0.0203
11,AAGTAAGCATGGACCGGTTTTCCCGGTAATCCGTATTTGGA (site AAGTAAGCTTC),1.78
12,AGAATGGCATGGACCGGTTTTCCCGGTAATCCGTATTTGCT (site AGAATGGCTAG),2.19
13,ATAAGGGCATGGACCGGTTTTCCCGGTAATCCGTATTTGAC (site ATAAGGCCTGT),0.00415
14,CGGAATCCATGGACCGGTTTTCCCGGTAATCCGTATTTGTT (site AGGGATCCTAA),0.0088
15,TCCACCACATGGACCGGTTTTCCCGGTAATCCGTATTTGCG (site TCCACCTCTCG),0.00608
16,GCTCGAGCATGGACCGGTTTTCCCGGTAATCCGTATTTGCA (site GGTCGAGCTTG),0.679
17,CAAACATCATGGACCGGTTTTCCCGGTAATCCGTATTTGCT (site CAAACATCTAG),1.94
18,TGCGAGGCATGGACCGGTTTTCCCGGTAATCCGTATTTGTA (site TGCGAGGCTTA),1.41
19,GGTCCAACATGGACCGGTTTTCCCGGTAATCCGTATTTGTA (site GGTCCAACTGA),0
20,TCCTATTCATGGACCGGTTTTCCCGGTAATCCGTATTTGCC (site TCCAATTCTGG),0
21,TTGAACACATGGACCGGTTTTCCCGGTAATCCGTATTTGAC (site TTGAACACTGT),0.849
22,CTAGTATCATGGACCGGTTTTCCCGGTAATCCGTATTTGCC (site CTAGTATCTGG),3.09
23,GCTACTGCATGGACCGGTTTTCCCGGTAATCCGTATTTGCC (site GCTACTTCTGG),0
24,CGTTACACATGGACCGGTTTTCCCGGTAATCCGTATTTGAG (site CGTTATACTCT),0.202

row,Sequence,recombinant UMI read abundance (log10)
1,CTACTACCATGGACCGGTTTTCCCGGTAATCCGTATTTGGA (site CTACTAACTTC),0.0163
2,CCCGTCGCATGGACCGGTTTTCCCGGTAATCCGTATTTGCC (site CCCGTCGCTGG),1.45
3,CGAACCACATGGACCGGTTTTCCCGGTAATCCGTATTTGTG (site CGAACCACTCA),0.523
4,TTCTAGGCATGGACCGGTTTTCCCGGTAATCCGTATTTGGT (site TGCTAGGCTAC),0.0112
5,ATACATCCATGGACCGGTTTTCCCGGTAATCCGTATTTGAC (site AAACATCCTGT),0
6,CAATTGCCATGGACCGGTTTTCCCGGTAATCCGTATTTGCT (site CAATTTCCTAG),0
7,AATGTAACATGGACCGGTTTTCCCGGTAATCCGTATTTGCG (site AATGTAACTAG),0
8,CCCATATCATGGACCGGTTTTCCCGGTAATCCGTATTTGTG (site CCCATATCTGA),0
9,CGGAATCCATGGACCGGTTTTCCCGGTAATCCGTATTTGTT (site CGGCATCCTAA),0.0145
10,GGACTCACATGGACCGGTTTTCCCGGTAATCCGTATTTGTG (site GGACTCACTCA),0.00312
11,GCTTGTCCATGGACCGGTTTTCCCGGTAATCCGTATTTGAT (site GCTTGCCCTAT),0.021
12,AGTTAGGCATGGACCGGTTTTCCCGGTAATCCGTATTTGGA (site AGTTAGGCTTC),0.957
13,CGGAATCCATGGACCGGTTTTCCCGGTAATCCGTATTTGTT (site CAGAATCCTAA),0
14,CGGTAGACATGGACCGGTTTTCCCGGTAATCCGTATTTGAG (site CGGTAGACTCT),1.9
15,TGGCCGACATGGACCGGTTTTCCCGGTAATCCGTATTTGGC (site TGGCCGGCTGC),0.00648
16,CGGAATCCATGGACCGGTTTTCCCGGTAATCCGTATTTGTT (site CGGAACCCTCA),0.0146
17,CCTTTAGCATGGACCGGTTTTCCCGGTAATCCGTATTTGTG (site CCGTTAGCTCA),0.00885
18,CGCCGTACATGGACCGGTTTTCCCGGTAATCCGTATTTGCT (site CTCCGTACTAG),0
19,GGCTATCCATGGACCGGTTTTCCCGGTAATCCGTATTTGAA (site GGCGATCCTTT),0.0136
20,TAGAATACATGGACCGGTTTTCCCGGTAATCCGTATTTGCA (site TAGCATACTTG),0.783
21,AGCTGAGCATGGACCGGTTTTCCCGGTAATCCGTATTTGGG (site AGCTCAGCTCC),0
22,TAAAGTCCATGGACCGGTTTTCCCGGTAATCCGTATTTGTA (site TAAAGTTCTTA),0.0051
23,CCCTTCGCATGGACCGGTTTTCCCGGTAATCCGTATTTGGG (site CCCTTCTCTCC),0.0112
24,CGGAATCCATGGACCGGTTTTCCCGGTAATCCGTATTTGTT (site CGGGATCCTAA),0.0888

row,Sequence,recombinant UMI read abundance (log10)
1,GGGGCACCATGGACCGGTTTTCCCGGTAATCCGTATTTGCT (site GGGGCACCTTG),0
2,CCGTTTGCATGGACCGGTTTTCCCGGTAATCCGTATTTGTG (site CCGTTCGCTCA),0.0182
3,ACATCTACATGGACCGGTTTTCCCGGTAATCCGTATTTGTG (site ACCTCTACTCA),0.0111
4,AACCGTGCATGGACCGGTTTTCCCGGTAATCCGTATTTGAT (site AACCGTACTAT),0.902
5,GCGACGGCATGGACCGGTTTTCCCGGTAATCCGTATTTGTC (site GCGACGGCTGA),1.84
6,CGCCGCACATGGACCGGTTTTCCCGGTAATCCGTATTTGCT (site CGCCGAACTAG),0
7,ACCTAGCCATGGACCGGTTTTCCCGGTAATCCGTATTTGGG (site ACCTAGACTCC),0.00935
8,AAATCTACATGGACCGGTTTTCCCGGTAATCCGTATTTGTG (site ACATCTACTCA),0.0169
9,TGGCATCCATGGACCGGTTTTCCCGGTAATCCGTATTTGTT (site TGGCATCCTAA),0.165
10,AGACAGGCATGGACCGGTTTTCCCGGTAATCCGTATTTGCT (site AGATAGGCTAG),0.555
11,AACCGTCCATGGACCGGTTTTCCCGGTAATCCGTATTTGAG (site AACCGTCCTTT),0.00366
12,TAAAGTCCATGGACCGGTTTTCCCGGTAATCCGTATTTGTA (site GAAAGTCCTTA),0.00467
13,GGTGCGTCATGGACCGGTTTTCCCGGTAATCCGTATTTGGA (site GGTGCGTCTTC),0.59
14,CAAACGCCATGGACCGGTTTTCCCGGTAATCCGTATTTGTG (site CAATCGCCTCA),0.0256
15,AGGAAAACATGGACCGGTTTTCCCGGTAATCCGTATTTGCG (site AGGAAGACTTG),0
16,TCCTACCCATGGACCGGTTTTCCCGGTAATCCGTATTTGGT (site TCCTACCCTAC),0.00951
17,TCGCGTACATGGACCGGTTTTCCCGGTAATCCGTATTTGGG (site TCGCGTACTCC),0.0193
18,AACAGTCCATGGACCGGTTTTCCCGGTAATCCGTATTTGAT (site AACAGTCCTAT),0.504
19,GTTAGAACATGGACCGGTTTTCCCGGTAATCCGTATTTGGC (site GTTCGAACTGC),0
20,GCAGGCCCATGGACCGGTTTTCCCGGTAATCCGTATTTGCC (site GCAGGCCCTGG),0.86
21,GACATACCATGGACCGGTTTTCCCGGTAATCCGTATTTGGT (site GACACACCTAC),0.01
22,AGAAAGACATGGACCGGTTTTCCCGGTAATCCGTATTTGCT (site AGAAAGTCTAG),0.572
23,TGCTCCGCATGGACCGGTTTTCCCGGTAATCCGTATTTGTG (site TGCTCCGCTCA),0.265
24,CTATTCCCATGGACCGGTTTTCCCGGTAATCCGTATTTGCT (site CTATTCCCTAG),0.845

# Reference: the supplement of paper PMC11208160
